# Test results as given in PMC8159961, “Exploring protein hotspots by optimized fragment pharmacophores” (Nature Communications, 2021).
# pEC50, pIC50, pKi: −log10 of the molar value. “And” between values parts separate entries of the source, which are not always exact repeats. Equal values may be shown once. “Also recorded” adds a separate entry of the source. Read-outs that look alike come from different tables or passages of the source.
# Legend:
# human 5-HT1A receptor = biological target: T1, human 5-HT1A receptor (Homo sapiens, UniProt P08908); assay: GPCR radioligand binding assay, [3H]-8-OH-DPAT displacement, HEK293 membranes
# T1 construct: expressed in transfected cells
# T1 sequence (P08908 1-422): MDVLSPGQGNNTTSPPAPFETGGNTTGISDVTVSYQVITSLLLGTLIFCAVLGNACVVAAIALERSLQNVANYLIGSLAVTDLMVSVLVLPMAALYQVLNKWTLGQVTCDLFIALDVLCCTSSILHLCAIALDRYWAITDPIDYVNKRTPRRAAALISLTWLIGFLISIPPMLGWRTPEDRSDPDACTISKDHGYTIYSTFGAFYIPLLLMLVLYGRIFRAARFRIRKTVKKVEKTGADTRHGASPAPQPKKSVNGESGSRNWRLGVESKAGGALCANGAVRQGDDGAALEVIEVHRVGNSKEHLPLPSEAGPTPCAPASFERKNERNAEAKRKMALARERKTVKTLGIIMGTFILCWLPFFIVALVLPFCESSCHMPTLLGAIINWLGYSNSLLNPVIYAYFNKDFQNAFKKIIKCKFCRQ
# human 5-HT6 receptor = biological target: T2, human 5-HT6 receptor (Homo sapiens, UniProt P50406); assay: GPCR radioligand binding assay, [3H]-LSD displacement, HEK293 membranes
# T2 construct: expressed in transfected cells
# human 5-HT7b receptor = biological target: T3, human 5-HT7b receptor (Homo sapiens, UniProt P34969); assay: GPCR radioligand binding assay, [3H]-5-CT displacement, HEK293 membranes
# T3 construct: expressed in transfected cells
# human thrombin = biological target: T4, human thrombin (Homo sapiens, UniProt P00734); assay: Protease inhibitory assay, chromogenic substrate S-2238; assay type: biochemical; settings: plate layout, label = plate position; Cheng-Prusoff, Km 2.6 µM; read-out: Thrombin Ki
# T4 construct: human thrombin; purchased Sigma-Aldrich
# recombinant SETD2 = biological target: T5, recombinant SETD2 (Homo sapiens, UniProt Q9BYW2); assay: SETD2 Chemiluminescence assay (H3K36 tri-methylation); assay type: biochemical; settings: for SETD2 signal normalised to positive control and internally to compound: nM], replicates
# T5 construct: purchased BPS Bioscience 52060
# T5 sequence (Q9BYW2 1418-1714 limits assumed): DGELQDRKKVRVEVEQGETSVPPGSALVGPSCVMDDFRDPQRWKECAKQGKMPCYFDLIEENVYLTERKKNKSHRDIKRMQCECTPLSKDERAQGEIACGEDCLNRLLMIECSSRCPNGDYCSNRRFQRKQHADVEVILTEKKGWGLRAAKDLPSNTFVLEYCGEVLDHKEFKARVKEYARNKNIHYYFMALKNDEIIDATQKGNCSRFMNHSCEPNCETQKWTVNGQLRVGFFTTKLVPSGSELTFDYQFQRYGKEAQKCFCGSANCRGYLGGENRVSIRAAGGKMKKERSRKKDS
# MOLM-13 leukemia cells = assay: Cell viability assay, CellTiter-Glo, 5 days; settings: for normalized viability (0 = 0 % viability, 1 = 100 % viability): MOLM-13, nM], replicates
# MV4-11 leukemia cells = assay: Cell viability assay, CellTiter-Glo, 5 days; settings: for normalized viability (0 = 0 % viability, 1 = 100 % viability): MV4-11, nM], replicates
# [1] = biological target: T6, SARS-CoV-2 NSP3 macrodomain (Severe acute respiratory syndrome coronavirus 2, UniProt P0DTD1); assay: NSP3 macrodomain HTRF assay, displacement of ADP-ribose-conjugated biotin peptide; assay type: binding; settings: HTRF assay, up to 5 mM concentration
# SARS-CoV-2 = assay: microbe, parasite or virus in culture; assay type: cell-based; settings: for pEC50: Vero E6 cells, 48 h post infection, read-out: EC50, blocking SARS-CoV-2 replication; for antiviral activity in the cellular assay (in words): infected Vero E6 cells
# [2] = biological target: T6, SARS-CoV-2 NSP3 macrodomain; assay: X-ray fragment screening (XChem, crystal soaking); assay type: binding
# T2 sequence (P50406 whole entry): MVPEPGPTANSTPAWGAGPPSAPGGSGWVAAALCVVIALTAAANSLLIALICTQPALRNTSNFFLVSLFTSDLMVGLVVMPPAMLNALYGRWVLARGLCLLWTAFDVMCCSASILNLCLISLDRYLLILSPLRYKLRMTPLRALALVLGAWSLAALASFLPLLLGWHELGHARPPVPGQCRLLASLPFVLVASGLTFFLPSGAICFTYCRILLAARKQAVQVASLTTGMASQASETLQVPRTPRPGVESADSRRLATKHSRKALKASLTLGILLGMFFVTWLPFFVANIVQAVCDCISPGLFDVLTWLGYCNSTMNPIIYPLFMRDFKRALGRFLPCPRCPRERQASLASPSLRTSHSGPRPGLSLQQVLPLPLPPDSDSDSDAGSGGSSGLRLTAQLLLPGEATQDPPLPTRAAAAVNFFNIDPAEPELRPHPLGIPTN
# T3 sequence (P34969 1-432): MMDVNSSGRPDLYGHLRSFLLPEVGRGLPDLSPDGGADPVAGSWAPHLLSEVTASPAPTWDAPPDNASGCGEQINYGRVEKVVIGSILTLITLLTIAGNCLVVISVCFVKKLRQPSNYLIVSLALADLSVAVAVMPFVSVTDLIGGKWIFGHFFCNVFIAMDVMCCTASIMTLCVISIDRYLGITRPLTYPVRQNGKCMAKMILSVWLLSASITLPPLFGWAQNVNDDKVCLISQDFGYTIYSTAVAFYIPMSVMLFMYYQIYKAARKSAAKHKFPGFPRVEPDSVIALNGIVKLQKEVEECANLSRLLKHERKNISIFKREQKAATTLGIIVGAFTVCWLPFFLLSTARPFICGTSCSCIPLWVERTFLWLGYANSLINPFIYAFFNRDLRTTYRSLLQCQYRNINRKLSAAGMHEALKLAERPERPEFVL
structure (smiles),measurement,setting,value
CC1CCc2sc(C(=O)O)cc2C1 (stereo not drawn) [SX045],inhibition at 10 µM,"human 5-HT1A receptor; 10 µM, read-out: 5-HT1A % Inhibition by plate position",0%
same,inhibition at 10 µM,"human 5-HT1A receptor; 5-HT1A, average of exp_1 and exp_2, read-out: %inh 5-HT1A average",-1%
same,inhibition at 10 µM,"human 5-HT1A receptor; 5-HT1A, average, values below 0 and above 100% were set as 0 and 100, read-out: %inh 5-HT1A corrected*",0%
same,inhibition at 10 µM,"human 5-HT1A receptor; 5-HT1A, replicate exp_1, read-out: %inh 5-HT1A exp_1",-0.0944%
same,inhibition at 10 µM,"human 5-HT1A receptor; 5-HT1A, replicate exp_2, read-out: %inh 5-HT1A exp_2",-2%
same,inhibition at 10 µM,"human 5-HT6 receptor; 10 µM, read-out: 5-HT6 % Inhibition by plate position",45%
same,inhibition at 10 µM,"human 5-HT6 receptor; 5-HT6, average of exp_1 and exp_2, read-out: %inh 5-HT6 average",45%
same,inhibition at 10 µM,"human 5-HT6 receptor; 5-HT6, average, values below 0 and above 100% were set as 0 and 100, read-out: %inh 5-HT6 corrected*",45%
same,inhibition at 10 µM,"human 5-HT6 receptor; 5-HT6, replicate exp_1, read-out: %inh 5-HT6 exp_1",52%
same,inhibition at 10 µM,"human 5-HT6 receptor; 5-HT6, replicate exp_2, read-out: %inh 5-HT6 exp_2",38%
same,inhibition at 10 µM,"human 5-HT7b receptor; 10 µM, read-out: 5-HT7 % Inhibition by plate position",4.44%
same,inhibition at 10 µM,"human 5-HT7b receptor; 5-HT7, average of exp_1 and exp_2, read-out: %inh 5-HT7 average",4.44%
same,inhibition at 10 µM,"human 5-HT7b receptor; 5-HT7, average, values below 0 and above 100% were set as 0 and 100, read-out: %inh 5-HT7 corrected*",4.44%
same,inhibition at 10 µM,"human 5-HT7b receptor; 5-HT7, replicate exp_1, read-out: %inh 5-HT7 exp_1",-4.73%
same,inhibition at 10 µM,"human 5-HT7b receptor; 5-HT7, replicate exp_2, read-out: %inh 5-HT7 exp_2",14%
same,pKi,human thrombin,4.19
same,pIC50,recombinant SETD2; chemiluminescence-based enzymatic assay,3.52
same,SETD2 signal normalised to positive control and internally to compound,recombinant SETD2; fragment concentration 4.4 [log,0.78 and 0.88
same,SETD2 signal normalised to positive control and internally to compound,recombinant SETD2; fragment concentration 5 [log,0.71 and 0.90
same,SETD2 signal normalised to positive control and internally to compound,recombinant SETD2; fragment concentration 5.3 [log,0.89 and 0.66
same,SETD2 signal normalised to positive control and internally to compound,recombinant SETD2; fragment concentration 5.6 [log,0.20 and 0.33
same,SETD2 signal normalised to positive control and internally to compound,recombinant SETD2; fragment concentration 5.9 [log,0.05 and 0.21
same,"normalized viability (0 = 0 % viability, 1 = 100 % viability)",MOLM-13 leukemia cells; concentration 2.18 [log,1.039 and 0.9762 and 0.9421
same,"normalized viability (0 = 0 % viability, 1 = 100 % viability)",MOLM-13 leukemia cells; concentration 2.66 [log,1.004 and 0.9844 and 0.9162
same,"normalized viability (0 = 0 % viability, 1 = 100 % viability)",MOLM-13 leukemia cells; concentration 3.14 [log,0.9835 and 0.9812 and 0.9002
same,"normalized viability (0 = 0 % viability, 1 = 100 % viability)",MOLM-13 leukemia cells; concentration 3.61 [log,0.9836 and 0.9626 and 0.8884
same,"normalized viability (0 = 0 % viability, 1 = 100 % viability)",MOLM-13 leukemia cells; concentration 4.09 [log,0.9563 and 0.9463 and 0.9164
same,"normalized viability (0 = 0 % viability, 1 = 100 % viability)",MOLM-13 leukemia cells; concentration 4.57 [log,0.8812 and 0.9087 and 0.8366
same,"normalized viability (0 = 0 % viability, 1 = 100 % viability)",MOLM-13 leukemia cells; concentration 5.05 [log,0.7992 and 0.5481 and 0.7667
same,"normalized viability (0 = 0 % viability, 1 = 100 % viability)",MOLM-13 leukemia cells; concentration 5.52 [log,0.5003 and 0.4827 and 0.2594
same,"normalized viability (0 = 0 % viability, 1 = 100 % viability)",MOLM-13 leukemia cells; concentration 6 [log,0.05284 and 0.001062 and 0.1076
same,IC50 cell viability / anti-proliferative EC50,"MOLM-13 leukemia cells; MOLM-13 cells, 5 days after treatment",333 µM
same,"normalized viability (0 = 0 % viability, 1 = 100 % viability)",MV4-11 leukemia cells; concentration 2.18 [log,0.9962 and 1.163 and 0.9666
same,"normalized viability (0 = 0 % viability, 1 = 100 % viability)",MV4-11 leukemia cells; concentration 2.66 [log,0.9943 and 0.9504 and 0.9572
same,"normalized viability (0 = 0 % viability, 1 = 100 % viability)",MV4-11 leukemia cells; concentration 3.14 [log,0.9413 and 0.941 and 0.9817
same,"normalized viability (0 = 0 % viability, 1 = 100 % viability)",MV4-11 leukemia cells; concentration 3.61 [log,0.7873 and 0.9285 and 0.9554
same,"normalized viability (0 = 0 % viability, 1 = 100 % viability)",MV4-11 leukemia cells; concentration 4.09 [log,0.7566 and 0.9251 and 0.9854
same,"normalized viability (0 = 0 % viability, 1 = 100 % viability)",MV4-11 leukemia cells; concentration 4.57 [log,0.732 and 0.9248 and 0.8741
same,"normalized viability (0 = 0 % viability, 1 = 100 % viability)",MV4-11 leukemia cells; concentration 5.05 [log,0.7081 and 0.7223 and 0.7408
same,"normalized viability (0 = 0 % viability, 1 = 100 % viability)",MV4-11 leukemia cells; concentration 5.52 [log,0.4531 and 0.4099 and 0.4328
same,"normalized viability (0 = 0 % viability, 1 = 100 % viability)",MV4-11 leukemia cells; concentration 6 [log,0.0008148 and 0.0004041 and 0.01018
same,IC50 cell viability / anti-proliferative EC50,"MV4-11 leukemia cells; MV4-11 cells, 5 days after treatment",400 µM
CC1C(=O)NC(=O)N1c1ccc(Cl)cc1 (stereo not drawn) [SX051],activity in the NSP3 enzyme assay (in words),[1],no activity
same,Inhibition (%) of viral copy numbers,"SARS-CoV-2; 10 uM, replicates",0% and 9.716% and 1.026%
same,viral copy numbers normalized to the control (untreated infected cells),"SARS-CoV-2; 10 uM, replicates",2.076 and 0.9028 and 0.9897
same,Inhibition (%) of viral copy numbers,"SARS-CoV-2; 100 uM, replicates",32.89% and 37.84%
same,viral copy numbers normalized to the control (untreated infected cells),"SARS-CoV-2; 100 uM, replicates",0.7145 and 0.6711 and 0.6216
same,Inhibition (%) of viral copy numbers,"SARS-CoV-2; 250 uM, replicates",83.75% and 96.5% and 61.73%
same,viral copy numbers normalized to the control (untreated infected cells),"SARS-CoV-2; 250 uM, replicates",0.1625 and 0.03502 and 0.3827
same,Inhibition (%) of viral copy numbers,"SARS-CoV-2; 500 uM, replicates",86.97% and 88.23%
same,viral copy numbers normalized to the control (untreated infected cells),"SARS-CoV-2; 500 uM, replicates",0.2487 and 0.1303 and 0.1177
same,Inhibition (%) of viral copy numbers,"SARS-CoV-2; 750 uM, replicates",96.17% and 94.15%
same,viral copy numbers normalized to the control (untreated infected cells),"SARS-CoV-2; 750 uM, replicates",0.05523 and 0.03827 and 0.05848
same,Inhibition (%) of viral copy numbers,"SARS-CoV-2; 1000 uM, replicates",100% and 99.81%
same,viral copy numbers normalized to the control (untreated infected cells),"SARS-CoV-2; 1000 uM, replicates",0.003839 and 0 and 0.001919
same,inhibition at 100 µM,"SARS-CoV-2; Severe acute respiratory syndrome coronavirus 2, Vero C1008, 100 uM, replicates, read-out: Inhibition (%) of viral copy numbers",28.5%
same,inhibition at 500 µM,"SARS-CoV-2; Severe acute respiratory syndrome coronavirus 2, Vero C1008, 500 uM, replicates, read-out: Inhibition (%) of viral copy numbers",75.1%
same,inhibition at 750 µM,"SARS-CoV-2; Severe acute respiratory syndrome coronavirus 2, Vero C1008, 750 uM, replicates, read-out: Inhibition (%) of viral copy numbers",94.5%
same,inhibition at 1000 µM,"SARS-CoV-2; Severe acute respiratory syndrome coronavirus 2, Vero C1008, 1000 uM, replicates, read-out: Inhibition (%) of viral copy numbers",99.6%
same,pEC50,"SARS-CoV-2; Severe acute respiratory syndrome coronavirus 2, Vero C1008, 48 h",3.87
same,pEC50,SARS-CoV-2,3.87
same,antiviral activity in the cellular assay (in words),SARS-CoV-2,high micromolar range; also recorded: Significant antiviral activities
same,"X-ray screen result, binding site",[2],identified in the active site
Clc1ccc2nnnn2n1 [SX054],activity in the NSP3 enzyme assay (in words),[1],no activity
same,antiviral activity in the cellular assay (in words),SARS-CoV-2,inactive in cells
same,"X-ray screen result, binding site",[2],identified in the active site
